Test results taken from patent publication US12171755B2, “PAPD5 inhibitors and methods of use thereof” (Children's Medical Center Corporation, priority 2017, dated 2024).

Biological target: T1, PAPD5 (Homo sapiens, UniProt Q8NDF8)
T1 construct: made in house
Assay: High-throughput luminescence (KinaseGlo) RNA polyadenylation assay, ATP utilization by recombinant PAPD5
Format: biochemical
Details: Table 4 (entries of Table 5), ratio of luminescence with inhibitor to DMSO; for Fold-change determined at compound concentration 33 μM: 33 μM compound; for Fold-change determined at compound concentration 100 μM: 100 μM compound, higher = higher inhibition
How it was run: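 Values are ratios of inhibitor to DMSO luminescence, so larger numbers mean less ATP consumed. Screening was run in duplicate with a 2 h room-temperature reaction of recombinant PAPD5, ATP and oligo RNA substrate plus compound. Residual ATP was detected after a 10 min KinaseGlo step.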

T1 sequence (Q8NDF8 68-698 isoform Q8NDF8-5): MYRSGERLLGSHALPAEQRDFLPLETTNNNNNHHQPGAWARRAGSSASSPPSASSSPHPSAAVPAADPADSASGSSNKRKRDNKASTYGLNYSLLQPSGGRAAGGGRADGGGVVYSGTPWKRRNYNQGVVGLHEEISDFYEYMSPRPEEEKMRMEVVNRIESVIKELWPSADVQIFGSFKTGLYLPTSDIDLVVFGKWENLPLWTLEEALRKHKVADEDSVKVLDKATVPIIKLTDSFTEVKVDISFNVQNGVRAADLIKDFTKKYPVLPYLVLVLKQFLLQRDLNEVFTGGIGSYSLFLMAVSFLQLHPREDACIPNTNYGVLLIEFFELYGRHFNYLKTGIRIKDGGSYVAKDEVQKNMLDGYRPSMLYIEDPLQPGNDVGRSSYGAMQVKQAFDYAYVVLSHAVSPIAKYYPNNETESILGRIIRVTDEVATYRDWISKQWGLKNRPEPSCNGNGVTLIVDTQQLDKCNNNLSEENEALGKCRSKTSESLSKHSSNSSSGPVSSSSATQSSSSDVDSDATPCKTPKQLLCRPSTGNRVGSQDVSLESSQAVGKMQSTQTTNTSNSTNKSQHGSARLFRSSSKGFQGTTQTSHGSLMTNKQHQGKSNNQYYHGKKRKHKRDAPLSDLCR

Row | SMILES | Fold-change determined at compound concentration 33 μM | Fold-change determined at compound concentration 100 μM
1 | O=S(=O)(NC1=NC2=NC(c3ccccc3)=CC(c3ccc(F)cc3)N2N1)c1ccc(Cl)cc1 (stereo not drawn) [Entry 157, 4-chloro-N-[7-(4-fluorophenyl)-5-phenyl-1,7-dihydro-[1,2,4]triazolo[1,5-a]pyrimidin-2-yl]benzenesulfonamide] | 1.059 | 1.203
2 | CCc1nc2[nH]c(-c3ccc(C)cc3)cc(=O)n2n1 [Entry 158, 2-ethyl-5-(4-methylphenyl)[1,2,4]triazolo[1,5-a]pyrimidin-7(4H)-one] | 1.13 | 1.364
3 | Cc1ccc(S(=O)(=O)NC2=NC3=NC(c4ccccc4)=CC(c4ccc(Cl)cc4)N3N2)cc1 (stereo not drawn) [Entry 159, N-[7-(4-chlorophenyl)-5-phenyl-1,7-dihydro-[1,2,4]triazolo[1,5-a]pyrimidin-2-yl]-4-methylbenzenesulfonamide] | 1.12 | 1.22
4 | c1cc(OCCN2CCCCC2)cc(-c2n[nH]c3ccc(-c4ncn[nH]4)cc23)c1 [Entry 160, 3-[3-(2-piperidin-1-ylethoxy)phenyl]-5-(1H-1,2,4-triazol-5-yl)-1H-indazole] | 1.075 | 1.239
5 | O=c1nc(SCc2ccc(F)cc2)[nH]c2nc[nH]c12 [Entry 162, 2-[(4-fluorophenyl)methylsulfanyl]-3,7-dihydropurin-6-one] | 1.153 | 1.431
6 | Cc1ccccc1CSc1nc(=O)c2[nH]cnc2[nH]1 [Entry 163, 2-[(2-methylphenyl)methylsulfanyl]-3,7-dihydropurin-6-one] | 1.109 | 1.287
7 | Cc1oc2ccccc2c1C(=O)CSc1nc(O)c2nc[nH]c2n1 [Entry 164, 2-[(6-hydroxy-9H-purin-2-yl)thio]-1-(2-methyl-1-benzofuran-3-yl)ethanone] | 1.126 | 1.293
8 | COc1cc(-c2nc(C(N)=O)c3[nH]c(=O)n(CC4CCCO4)c3n2)ccc1O (stereo not drawn) [Entry 165, 2-(4-hydroxy-3-methoxyphenyl)-8-oxo-9-(tetrahydrofuran-2-ylmethyl)-8,9-dihydro-7H-purine-6-carboxamide] | 1.224 | 1.689
9 | COCc1c(Br)c(C)nc2sc3c(=O)[nH]nnc3c12 [Entry 166, 8-bromo-9-(methoxymethyl)-7-methylpyrido[3′,2′:4,5]thieno[3,2-d][1,2,3]triazin-4(3H)-one] | 1.128 | 1.321
10 | COCc1c(Br)c(C)nc2sc3c(=O)n(-c4ccccc4C(=O)OC)nnc3c12 [Entry 167, methyl 2-(8-bromo-9-(methoxymethyl)-7-methyl-4-oxopyrido[3′,2′:4,5]thieno[3,2-d][1,2,3]triazin-3(4H)-yl)benzoate] | 1.413 | 1.995
11 | Cc1c(C(=O)N2CCCC2)oc2c1-c1nn(CC(=O)NCCCOC(C)C)cc1CC2 [Entry 168, 2-[8-methyl-7-(pyrrolidine-1-carbonyl)-4,5-dihydrofuro[2,3-g]indazol-2-yl]-N-(3-propan-2-yloxypropyl)acetamide] | 1.452 | 1.678
12 | CCOCCCNC(=O)Cn1cc2c(n1)-c1c(oc(C(=O)N3CCCC3)c1C)CC2 [Entry 169, N-(3-ethoxypropyl)-2-[8-methyl-7-(pyrrolidine-1-carbonyl)-4,5-dihydrofuro[2,3-g]indazol-2-yl]acetamide] | 1.455 | 1.879
13 | Cc1ccccc1CNC(=O)Cn1cc2c(n1)-c1c(oc(C(=O)N3CCCC3)c1C)CC2 [Entry 170, N-[(2-methylphenyl)methyl]-2-[8-methyl-7-(pyrrolidine-1-carbonyl)-4,5-dihydrofuro[2,3-g]indazol-2-yl]acetamide] | 1.302 | 1.816
14 | COCCNC(=O)Cn1cc2c(n1)-c1c(oc(C(=O)N3CCCC3)c1C)CC2 [Entry 171, N-(2-methoxyethyl)-2-[8-methyl-7-(pyrrolidine-1-carbonyl)-4,5-dihydrofuro[2,3-g]indazol-2-yl]acetamide] | 1.374 | 1.777
15 | Cc1c(C(=O)N2CCCC2)oc2c1-c1nn(CC(=O)NCc3ccccc3Br)cc1CC2 [Entry 172, N-[(2-bromophenyl)methyl]-2-[8-methyl-7-(pyrrolidine-1-carbonyl)-4,5-dihydrofuro[2,3-g]indazol-2-yl]acetamide] | 1.296 | 1.616
16 | CCOC(=O)c1cccc(NC(=O)c2oc3c(c2C)-c2nn(CC)cc2CC3)c1 [Entry 173, ethyl 3-[(2-ethyl-8-methyl-4,5-dihydrofuro[2,3-g]indazole-7-carbonyl)amino]benzoate] | 1.19 | 1.657
17 | Cc1ccc(Cl)cc1NC(=O)c1oc2c(c1C)-c1[nH]ncc1CC2 [Entry 174, N-(5-chloro-2-methylphenyl)-8-methyl-4,5-dihydro-1H-furo[2,3-g]indazole-7-carboxamide] | 1.278 | 1.87
18 | Cc1c(C(=O)NCc2ccccc2)oc2c1-c1[nH]ncc1CC2 [Entry 175, N-benzyl-8-methyl-4,5-dihydro-1H-furo[2,3-g]indazole-7-carboxamide] | 1.094 | 1.352
19 | Cc1c2c(=O)n(-c3nc4ccccc4s3)[nH]c2cc(=O)n1CCc1cnc[nH]1 [Entry 176, 5-(2-(1H-imidazol-5-yl)ethyl)-2-(benzo[d]thiazol-2-yl)-4-methyl-1,2-dihydro-3H-pyrazolo[4,3-c]pyridine-3,6(5H)-dione] | 1.151 | 1.563
20 | Cc1c2c(=O)n(-c3nc4ccccc4s3)[nH]c2cc(=O)n1Cc1ccc(C(=O)O)cc1 [Entry 177, 4-[[2-(1,3-benzothiazol-2-yl)-4-methyl-3,6-dioxo-1H-pyrazolo[4,3-c]pyridin-5-yl]methyl]benzoic acid] | 1.053 | 1.4
21 | COc1ccc(-c2n[nH]c3nc(-c4ccc(O)c(O)c4)cc(C(=O)O)c23)cc1 [Entry 178, 6-(3,4-dihydroxyphenyl)-3-(4-methoxyphenyl)-1H-pyrazolo[3,4-b]pyridine-4-carboxylic acid] | 1.217 | 1.633
22 | COc1ccc(-c2[nH]nc3nc(-c4cc(Br)ccc4OC)cc(C(=O)O)c23)cc1 [Entry 179, 6-(5-bromo-2-methoxyphenyl)-3-(4-methoxyphenyl)-2H-pyrazolo[3,4-b]pyridine-4-carboxylic acid] | 1.112 | 1.309
23 | Cc1ccc(-c2n[nH]c3nc(-c4ccc(O)c(O)c4)cc(C(=O)O)c23)cc1 [Entry 180, 6-(3,4-dihydroxyphenyl)-3-(p-tolyl)-1H-pyrazolo[3,4-b]pyridine-4-carboxylic acid] | 1.303 | 1.736
24 | CCOc1cc(-c2cc(C(=O)O)c3c(-c4ccccc4)[nH]nc3n2)ccc1O [Entry 181, 6-(3-ethoxy-4-hydroxyphenyl)-3-phenyl-2H-pyrazolo[3,4-b]pyridine-4-carboxylic acid] | 1.124 | 1.272
25 | O=C(O)c1cc(-c2ccc(C(F)(F)F)cc2)nc2n[nH]c(-c3ccccc3)c12 [Entry 182, 3-phenyl-6-[4-(trifluoromethyl)phenyl]-2H-pyrazolo[3,4-b]pyridine-4-carboxylic acid] | 1.1781 | 1.35
26 | COc1ccc(-c2n[nH]c3nc(-c4cc(OC)c(OC)c(OC)c4)cc(C(=O)O)c23)cc1 [Entry 183, 3-(4-methoxyphenyl)-6-(3,4,5-trimethoxyphenyl)-1H-pyrazolo[3,4-b]pyridine-4-carboxylic acid] | 1.152 | 1.346
27 | CCOC(=O)c1ccc(NC(=O)CCc2c(C)nc3c(c(C)nn3C)c2C)cc1 [Entry 184, ethyl 4-[3-(1,3,4,6-tetramethylpyrazolo[3,4-b]pyridin-5-yl)propanoylamino]benzoate] | 1.245 | 1.294
28 | CCCCN(CCCC)CCCNC(=O)c1ccc2c(c1)sc1nc(-c3ccc(OC)cc3)cn12 [Entry 186, N-[3-(dibutylamino)propyl]-2-(4-methoxyphenyl)imidazo[2,1-b][1,3]benzothiazole-7-carboxamide] | 1.163 | 1.531
29 | Cc1ccc(-c2cn3c(n2)sc2ccc(C(=O)NCCCN4CCCCCC4)cc23)cc1 [Entry 187, N-[3-(azepan-1-yl)propyl]-2-(4-methylphenyl)imidazo[2,1-b][1,3]benzothiazole-6-carboxamide] | 1.108 | 1.262
30 | COC(=O)c1cnn2c(=O)cc(CS(=O)(=O)c3ccc(C)cc3C)[nH]c12 [Entry 188, Methyl 5-{[(2,4-dimethylphenyl)sulfonyl]methyl}-7-oxo-4,7-dihydropyrazolo[1,5-a]pyrimidine-3-carboxylate] | 1.089 | 1.29
